Source: publication PMC3222310, “Purification and characterization of hydroquinone dioxygenase from Sphingomonas sp. strain TTNP3” (AMB Express, 2011)

Legend:
[1] = target: T1, hydroquinone dioxygenase (HQDO) from Sphingomonas sp. strain TTNP3 (Sphingomonas sp. TTNP3, UniProt F8TW82+F8TW83); assay: residual activity on HQ with inhibitor; format: biochemical
T1 construct: gene hqdB; native enzyme purified from nonylphenol-induced cells; untagged; alpha2beta2 heterotetramer, 120 kDa by SEC, bands 38 kDa and 19 kDa; b63 order implies HqdA small and HqdB large, abstract order of identities contradicts
T1 sequence (F8TW83 1-341): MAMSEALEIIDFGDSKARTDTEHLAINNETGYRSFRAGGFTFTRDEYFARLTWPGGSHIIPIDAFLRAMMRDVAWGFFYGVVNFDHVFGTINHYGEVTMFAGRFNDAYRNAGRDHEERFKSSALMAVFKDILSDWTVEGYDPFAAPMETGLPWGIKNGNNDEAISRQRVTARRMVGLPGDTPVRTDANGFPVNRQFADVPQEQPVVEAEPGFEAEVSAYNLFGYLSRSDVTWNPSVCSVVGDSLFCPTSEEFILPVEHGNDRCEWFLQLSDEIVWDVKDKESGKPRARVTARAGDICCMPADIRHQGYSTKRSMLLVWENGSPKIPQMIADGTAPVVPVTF
T1 sequence (F8TW82 1-170): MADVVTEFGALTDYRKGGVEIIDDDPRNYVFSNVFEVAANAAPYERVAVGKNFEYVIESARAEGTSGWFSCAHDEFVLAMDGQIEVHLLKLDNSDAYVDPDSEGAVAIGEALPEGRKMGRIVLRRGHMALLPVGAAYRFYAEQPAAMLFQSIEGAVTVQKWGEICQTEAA
Source text: residual activity on HQ with inhibitor on hydroquinone dioxygenase (HQDO) from Sphingomonas sp. strain TTNP3

purified protein = substrate: Oc1ccc(O)cc1; assay: purified protein; format: biochemical, Sphingomonas sp. TTNP3; conditions: air-saturated 50 mM Tris, pH 7.0, 25°C, kcat per heterotetramer, suicide deactivation by substrate

## O=C(O)c1ccc(O)c(O)c1 [3,4-Dihydroxybenzoate]
[1]
  activity at 200 µM: 94 ± 4.6%

## O=C(O)/C=C/c1ccc(O)cc1 [4-Coumaric acid]
[1]
  activity at 200 µM: 97 ± 1.9%

## O=C(O)c1ccc(O)cc1 [4-Hydroxybenzoate]
[1]
  activity at 200 µM: 46 ± 0.4%

## N#CCc1ccc(O)cc1 [4-Hydroxybenzylcyanide]
[1]; 2 µM, substrate HQ, compound named 4-hydroxybenzonitrile in text, 4-hydroxybenzylcyanide in table
  Activity (%): 16 ± 0.2%

## Oc1ccc(S)cc1 [4-Mercaptophenol]
[1]
  activity at 20 µM: 5%

## O=[N+]([O-])c1ccc(O)cc1 [4-Nitrophenol]
[1]
  activity at 200 µM: 27 ± 1.2%

## O=C1C=CC(=O)C=C1 [Benzoquinone]
[1]
  activity at 20 µM: 16 ± 0.3%

## O=C(O)/C=C/c1ccc(O)c(O)c1 [Caffeic acid]
[1]
  activity at 80 µM: 98 ± 2.5%

## Oc1ccccc1O [Catechol]
[1]
  activity at 200 µM: 93 ± 1.3%

## Oc1ccccc1 [Phenol]
[1]
  activity at 200 µM: 98 ± 1.7%

## Oc1cccc(O)c1 [Resorcinol]
[1]
  activity at 200 µM: 99 ± 0.5%

## COc1cc(C(=O)O)ccc1O [Vanillate]
[1]
  activity at 200 µM: 86 ± 1%

## COc1cc(C=O)ccc1O [Vanillin]
[1]
  activity at 100 µM: 18 ± 7.4%

## COc1cc(CO)ccc1O [Vanillyl alcohol]
[1]
  activity at 200 µM: 62 ± 1%

B1: hydroquinone dioxygenase (HQDO) from Sphingomonas sp. strain TTNP3 (Sphingomonas sp. TTNP3) (protein)
chain 1: T1 sequence (F8TW83 1-341)
chain 2: T1 sequence (F8TW82 1-170)
notes: native enzyme purified from nonylphenol-induced cells; untagged; alpha2beta2 heterotetramer, 120 kDa by SEC, bands 38 kDa and 19 kDa; b63 order implies HqdA small and HqdB large, abstract order of identities contradicts
Purified protein
  Km: 2.2 ± 0.2 µM
  kcat: 13.5 s⁻¹
